Assay: in vitro
Conditions: human, hela cells, % viability

Structure (SMILES)	viability at 28.5 h, 10 µM
Cc1nn(C)cc1CN1CCN(CC2(c3ccccc3)CC2)CC1 [CBK282721]	105%
COc1cccc(/C=C/C2=NN(c3cccc(F)c3)C(c3cccc(OC)c3OC)C2)c1OC (stereo not drawn) [CBK260983]	104%
N#C/C(=C/c1cn(CC(=O)O)c2ccccc12)c1ccc(C(=O)O)cc1 [CBK268977]	111%
Cc1cc(NC(=O)c2cc(C)oc2C)no1 [CBK058081]	88.7%
Cc1nn2c(-c3cccc(NC(=O)CN4CCOCC4)c3)nnc2c2ccccc12 [CBK268383]	84.3%
CCC(=O)N1CCC(c2cc(-c3cccc(F)c3)n(C)n2)CC1 [CBK282096]	107%
Cc1cc(-c2cc3nc(C)c(C)c(O)n3n2)c(C)o1 [CBK284500]	90.4%
Cc1csc(Sc2nccnc2N2CCCC2)n1 [CBK093735]	90.3%
O=C(NC[C@H]1CC[C@H](C(=O)O)CC1)c1cc2ccccc2[nH]1 [CBK287069]	105%
O=C(CCN1C(=O)c2ccccc2C1=O)N(CCO)Cc1ccccc1 [CBK265565]	110%
COc1cccc(OCCOc2nsnc2N2CCNCC2)c1 [CBK200007]	110%
COc1cc(-c2cncc(NCCCO)n2)cc(OC)c1OC [CBK065271]	95.5%
Fc1ccc(-c2cncc(NCc3ccco3)n2)c(F)c1 [CBK065834]	91.9%
Cc1ccc2nc(C)cc(NCCO)c2c1 [CBK126909]	104%
O=C(COc1ccc2ccccc2c1)Oc1ccc2ccccc2c1 [CBK264885]	110%
Cc1nc(C)c(C(=O)N2CCC(c3cc4cnccc4[nH]3)CC2)s1 [CBK283432]	102%
CC(C(=O)N(C)C)n1cccc1 (stereo not drawn) [CBK012421]	86.4%
C[C@@H](Cn1c(C(F)(F)F)cc2cccnc21)NC(=O)C1CCC1 [CBK283230]	109%
CC(C)C(=O)NC(c1ccco1)c1ccc2cccnc2c1O (stereo not drawn) [CBK263277]	96.5%
Cc1cc(NC(=O)NC2CCOc3ccccc32)no1 (stereo not drawn) [CBK304581]	93.8%
CCc1ccc(Oc2c(CC(=O)O)oc3cc(O)c(CC)cc3c2=O)cc1 [CBK266108]	106%
CC(c1ccccc1)n1c(S)nnc1-c1cc(C(C)(C)C)n[nH]1 (stereo not drawn) [CBK268954]	92.2%
CCn1cc(C(=O)N2CCCC2c2nccs2)c(=O)c2ccc(C)nc21 (stereo not drawn) [CBK307171]	86.4%

Structure (SMILES)	viability at 28.5 h, 10 µM
O/N=C/Nc1nccc(-c2cc(Cl)sc2Cl)n1 [CBK005934]	87.5%
CCc1nn2c(=O)cc(CNc3ccc4c(c3)OCCO4)nc2s1 [CBK297787]	99.2%
Cc1noc(C(C)C)c1C(=O)NC1CCCN(c2ccn(C)n2)C1=O (stereo not drawn) [CBK306356]	75.8%
CCCCCC(=O)Nc1ccc(C(=O)Cn2nc(C(=O)O)c3ccccc3c2=O)cc1 [CBK295628]	104%
Cc1ccc2nc(SCCC(=O)O)cc(C)c2c1 [CBK286861]	90.1%
Nc1ncnc(Nc2cccc(C(F)(F)F)c2)n1 [CBK017403]	82.4%
Cc1oc(NC(=O)CN2CCN(c3ccccc3Cl)CC2)c(C#N)c1C [CBK305908]	84.7%
O=C(NC(C(=O)c1ccccc1)N1CCCCC1)c1ccccc1 (stereo not drawn) [CBK261035]	123%
Cc1cc(OCC(=O)N(C)C)c2c3c(c(=O)oc2c1)CCCC3 [CBK307189]	96.3%
COc1ccc(C(=O)Nc2ccc(N3CCOCC3)c(Cl)c2)cc1[N+](=O)[O-] [CBK263894]	100%
Cc1ccc(C(=O)N/C(=C\c2cccc([N+](=O)[O-])c2)C(=O)NC2CCCCC2)cc1 [CBK261407]	89.2%
NS(=O)(=O)c1ccc(CCNS(=O)(=O)c2ccccc2[N+](=O)[O-])cc1 [CBK264369]	111%
O=C(O)c1cn(C2CC2)c2cc(N3CCN(C(=O)Cc4ccccc4Cl)CC3)c(F)cc2c1=O [CBK297136]	90.4%
Nc1nc(SCC(=O)c2ccc3c(c2)OCCO3)n[nH]1 [CBK266554]	107%
CCCNC(=O)Nc1ccc(Cl)c(C(=O)O)c1 [CBK287009]	85.6%
CN(C)S(=O)(=O)c1ccc(C(=O)C2=C(O)C(=O)N(Cc3cccnc3)C2c2ccccc2)cc1 (stereo not drawn) [CBK264667]	100%
O=C(NC(Cc1ccc(O)cc1)C(=O)O)c1ccccc1 (stereo not drawn) [CBK260937]	88.4%
CCn1c(Cc2ccccc2)nnc1SCC(=O)Nc1cc(Cl)ccc1O [CBK268689]	104%
CNC(=O)c1ccc(-c2cc(C)cs2)nc1N(C)C [CBK106150]	86.8%
O=C(O)CCc1ccc(-c2ccc(Br)cc2)n1-c1ccccc1O [CBK131892]	93.9%
CC(=O)Nc1cccc(/C(C)=N/NC(=O)c2ccc(CN3CCOCC3)cc2)c1 [CBK262746]	95.4%
CCN1CCN(C(=O)c2ccc(C)c(S(=O)(=O)Nc3cccc(C)c3)c2)CC1 [CBK268226]	109%
CC(=O)Nc1cccc(-n2nnnc2SCC2CCCN(C)C2)c1 (stereo not drawn) [CBK305294]	108%

Structure (SMILES)	viability at 28.5 h, 10 µM
COC(=O)c1cc(C(=O)CSc2nc(N)cc(O)n2)ccc1O [CBK110407]	92.2%
CC(C)CC(=O)N1C[C@H]2NC(=O)c3ccccc3C(=O)[C@@]2(C)C1 [CBK281659]	96.1%
O=C(CCN1CCOCC1)Nc1ccc(Br)cc1C(=O)c1ccccc1 [CBK263165]	93%
Cc1ccc(C(=O)O)cc1S(=O)(=O)N1CCC(C(=O)O)CC1 [CBK267327]	107%
CNC(=O)CN1CC[C@H]2NC(=O)c3ccccc3OCC/C=C/C[C@H]2C1 [CBK292049]	110%
CCn1cc(CN2CCC(O)(c3ccc(C)cc3)CC2)c(C)n1 [CBK282955]	89.2%
COC(=O)NC(O)C(=O)c1cccs1 (stereo not drawn) [CBK027755]	93.8%
O=C(O)/C=C/c1ccc(CNS(=O)(=O)c2ccccc2)o1 [CBK286549]	86%
CCCOc1ccc(C(CC(=O)O)NS(=O)(=O)c2ccc(F)cc2)cc1 (stereo not drawn) [CBK287139]	102%
c1csc(-c2ccn3c(n2)nc2ccccc23)c1 [CBK287976]	83.9%
CCOc1cccc(N2C(=O)c3cc(Br)ccc3NC2c2ccc(OC)c(OC)c2)c1 (stereo not drawn) [CBK074502]	88.4%
CC(C)(C)OC(=O)N1CCC2(CC1)NC(=O)c1cc(-c3cccnc3)ccc1O2 [CBK083517]	94.1%
CN(C)CCN(C)c1nc(-c2ccc(F)c(Cl)c2)cn2ccnc12 [CBK038007]	95.7%
CCOc1ccc(CN2CCN(CC(=O)Nc3cc(C)on3)CC2)cc1 [CBK306116]	115%
CN1CCN(CCC(=O)N/N=C/c2ccc3c(c2)OCO3)CC1 [CBK261498]	91.5%
Cc1ccc(S(=O)(=O)N2CCC(C(=O)NC(c3ccccc3C)c3ncccc3C)CC2)cc1 (stereo not drawn) [CBK060249]	94.3%
CN(C)S(=O)(=O)c1ccc(C(=O)C2=C(O)C(=O)N(CCN3CCCCC3)C2c2cccnc2)cc1 (stereo not drawn) [CBK264700]	99.9%
Cc1cc(C(C)(C)C)cc(C)c1COC(=O)c1ccncc1 [CBK296995]	112%
O=c1[nH]c(=O)n(C2CC(O)C(CO)O2)cc1F (stereo not drawn) [CBK011695]	49.6%
O=C1CC2(CCN(C(=O)c3ccccn3)CC2)Oc2ccc(Br)cc21 [CBK156443]	93.7%
O=C(Cn1cc(Br)ccc1=O)NC1CCCN(Cc2ccccc2)C1 (stereo not drawn) [CBK305668]	83.7%
O=C(O)c1cccc(NS(=O)(=O)c2ccc3c(c2)CN(C(=O)C(F)(F)F)CC3)c1 [CBK155709]	92.2%
CCC(CC)C(=O)Nc1nc(OCCN2CCCC2=O)cnc1-c1ccc(Cl)cc1Cl [CBK145210]	92.6%

Structure (SMILES)	viability at 28.5 h, 10 µM
Cc1cc(=O)oc2ccc(OCC(=O)N(Cc3ccc(F)cc3)Cc3ccco3)cc12 [CBK266639]	103%
COc1ccc(NC(=O)CCC(=O)N2CCC(C(=O)O)CC2)cc1 [CBK286588]	100%
CCCNC(=O)c1ccc(C)c(NC(=O)NC2CCOC2)c1 (stereo not drawn) [CBK306794]	95.8%
CN(C)CCNC(=O)c1cccc(-c2cncc(N3CCN(c4ccncc4)CC3)n2)c1 [CBK065391]	100%
CC(C)C(CCC(=O)Nc1ccccc1[N+](=O)[O-])C(=O)O (stereo not drawn) [CBK268356]	86.3%
COc1nc(NCCc2ccc(OC)c(OC)c2)nc(OC)n1 [CBK266304]	94.4%
CCOC(=O)c1cn(CC)c2cc(N3CCCC3)c(F)cc2c1=O [CBK307169]	101%
CC(C)Nc1nc(NC(C)C)nc(Oc2ccc(C=O)cc2)n1 [CBK265043]	111%
c1ccc(OCCSc2cc(N3CCCC3)ncn2)cc1 [CBK103689]	113%
Cc1cc(C)cc(N(C(C)C(=O)N2CCN(Cc3ccc4c(c3)OCO4)CC2)S(C)(=O)=O)c1 (stereo not drawn) [CBK269060]	90.3%
NC(=O)c1ccc(NC(=O)N2CCN(CCc3ccccc3)CC2)cc1 [CBK158924]	95.3%
Cn1c(Cc2cccs2)nnc1SCC(=O)c1c[nH]c2ccccc12 [CBK268534]	102%
O=c1oc2ccccc2c2nc(-c3ccncc3)ncc12 [CBK288536]	108%
CCCC(CCC(=O)Nc1ccccc1Cl)C(=O)O (stereo not drawn) [CBK286757]	120%
O=C(Cn1ccc2ccc(F)cc21)Nc1cccc(-n2cnnc2)c1 [CBK282570]	111%
CCOC(=O)[C@H]1CC[C@]2(CC1)CNC(=O)c1cc(Cl)ccc1O2 [CBK284849]	89.9%
O=C(O)c1ccc(NC(=O)c2ncn(-c3ccccc3)n2)cc1 [CBK269445]	97.7%
O=C(COc1ccccc1[N+](=O)[O-])Nc1ccc(Br)cc1C(=O)O [CBK266008]	84.9%
CN(C)CCCN1C(=O)C(O)=C(C(=O)c2ccc(Br)cc2)C1c1cccnc1 (stereo not drawn) [CBK264589]	105%
CCN1CCN(C(=O)CN(C)S(=O)(=O)c2ccc(OC)c(C)c2)CC1 [CBK268880]	110%
Cc1cc(CS(=O)(=O)N2CCOCC2c2cccc(F)c2)no1 (stereo not drawn) [CBK304093]	95.4%

From paper PMC12040169 (PLOS Biology, 2025)
